Results published in paper PMC11368737, “Effects of three flavonoids on the metabolism of lenvatinib” (Frontiers in Pharmacology, 2024).
Where two headings read alike, the source gives them in different places.

What was measured:
[1] = system: CYP1A2; parameters: method as in Vavrová et al., 2022; Liu et al., 2023; conditions: CYP1A2 selective inhibitor; ref Vavrová et al., 2022; Liu et al., 2023; cited from earlier work
[2] = system: CYP2B6; assay: CYP2B6 activity in RLM, mixed probe method (bupropion); conditions: for IC50 at 30 min: rat
[3] = system: CYP3A4; assay: in vitro; conditions: rat; for IC50 at 30 min: microsomes
Procedure: (§2) To determine the enzymatic kinetic parameter (the Michaelis constant, Km) of lenvatinib in RLM and HLM, we established a 200 μL enzyme reaction system, which included 2–100 μM lenvatinib, 0.3 mg/mL RLM or HLM, 0.1 M Tris-HCl, and 1 mM NADPH. […] The mixed probe substrates were added to an incubation mixture containing 0.3 mg/mL RLM, 0.1 M PBS, and 1 mM NADPH. First, the mixture without NADPH was pre-incubated at 37°C for 5 min, and then 10 μL NADPH was added to start the reaction. After incubation for 30 min, the samples were immediately freezed to −80°C to terminate the reaction. About 20 min later, 300 μL acetonitrile and 10 μL regorafenib (200 ng/mL) as IS were added to precipitate the protein. When the samples were fully vortexed for 2 min and completely mixed, the mixture was centrifuged for 10 min at 13,000 rpm. In the end, each supernatant was detected and analyzed by UPLC-MS/MS.
(§3) To explore the ability of three flavonoids to inhibit lenvatinib metabolism in vitro, we measured the half-maximal inhibitory concentration (IC50) of luteolin, myricetin, and fisetin, respectively. The 200 μL incubation system consisted of Tris-HCl (0.1 M), RLM or HLM (0.3 mg/mL), NADPH (1 mM), lenvatinib (23.5 μM in RLM or 16.9 μM in HLM) and three flavonoids (0, 0.01, 0.1, 1, 10, 25, 50 and 100 μM). To evaluate the effects of three flavonoids on CYP1A2, CYP2B6 and CYP3A4 activity in RLM, the specific CYP isoform probe mixture was incubated with a single inhibitor and the specific CYP isoform probe was used at a concentration equal to or slightly below its corresponding Km value ([Dinger et al., 2014]). […] Finally, the samples were processed as mentioned above.

[4] = system: lenvatinib metabolism (M1 formation) in HLM; assay: Inhibition of lenvatinib metabolism (M1 formation) by flavonoids in human liver microsomes; type: in vitro ADME; conditions: human; for IC50 at 30 min: 0.3 mg/mL HLM, lenvatinib 16.9 μM, mean ± S.D., read-out: IC50 to inhibit the metabolism of lenvatinib in HLM
[5] = molecular target: T1, CYP1A2 (Rattus norvegicus, UniProt P04799); assay: CYP1A2 activity in RLM, mixed probe method (melatonin); conditions: for inhibition at 30 min, 100 µM: rat
T1 sequence (P04799 1-513): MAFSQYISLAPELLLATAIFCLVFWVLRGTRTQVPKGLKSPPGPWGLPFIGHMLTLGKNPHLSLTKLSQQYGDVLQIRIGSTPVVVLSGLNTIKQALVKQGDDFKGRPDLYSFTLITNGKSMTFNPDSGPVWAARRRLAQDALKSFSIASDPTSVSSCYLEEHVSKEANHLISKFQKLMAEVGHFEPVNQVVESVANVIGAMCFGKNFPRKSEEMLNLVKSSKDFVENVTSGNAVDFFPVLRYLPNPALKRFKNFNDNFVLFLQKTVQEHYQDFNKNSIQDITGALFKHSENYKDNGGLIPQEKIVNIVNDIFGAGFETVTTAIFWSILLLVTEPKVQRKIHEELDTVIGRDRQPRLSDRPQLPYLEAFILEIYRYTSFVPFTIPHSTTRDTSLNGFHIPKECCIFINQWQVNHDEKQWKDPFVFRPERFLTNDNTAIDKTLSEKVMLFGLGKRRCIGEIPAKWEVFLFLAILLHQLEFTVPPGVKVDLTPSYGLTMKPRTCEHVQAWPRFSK
Procedure: as §2, §3

[6] = system: CYP3A4
Procedure: as §2, §3

[7] = parameters: method as in Xia et al., 2023; conditions: co-administered azole; ref Xia et al., 2023; cited from earlier work
[8] = Metabolic stability of lenvatinib in RLM with or without flavonoids; type: in vitro ADME; conditions: rat, rat liver microsomes, 1.0 μM lenvatinib, 0.3 mg/mL RLM, with or without flavonoid, n = 3
Procedure: Using the UPLC-MS/MS technique, metabolic stability tests were carried out to monitor any discernible drop in lenvatinib concentration in the RLM matrix ([Shang et al., 2021]). 1.0 μM lenvatinib was incubated with 0.3 mg/mL RLM and 1 mM NADPH in 0.1 M Tris-HCl buffer until a final volume of 0.2 mL was reached. NADPH was introduced following a 5 min pre-incubation period, and the reaction was stopped at various intervals of 0, 5, 10, 45, 60, and 90 min. Similarly, three flavonoids were added to the above incubation system to study the effects of the three flavonoids on the metabolic stability of lenvatinib. The post-treatment method was same as the above enzyme reaction. The metabolic stability curve for lenvatinib was constructed from the obtained data.
The relative content of lenvatinib in the RLM matrix was calculated after stopping the metabolic reaction at different time periods. The relative content was equal to the percentage of the remaining lenvatinib relative to zero time (representing 100%). […] The in vitro half-life (t1/2) was obtained using the equation: t1/2 = 0.693/k; V (mL/mg) = volume of incubation ([Kaci et al., 2023])/protein in the incubation ([Rumgay et al., 2022]); intrinsic clearance (CLint) (mL/min/mg protein) = V × 0.693/t1/2. […] The metabolic stability results of three flavonoids co-incubated with lenvatinib, including t1/2 and clearance were shown in Table 3.

[9] = Michaelis-Menten kinetics of lenvatinib in HLM; type: in vitro ADME, human; conditions: human, human liver microsomes; 2–100 μM lenvatinib, 0.3 mg/mL HLM
Procedure: (§4) To determine the enzymatic kinetic parameter (the Michaelis constant, Km) of lenvatinib in RLM and HLM, we established a 200 μL enzyme reaction system, which included 2–100 μM lenvatinib, 0.3 mg/mL RLM or HLM, 0.1 M Tris-HCl, and 1 mM NADPH. […] First, the mixture without NADPH was pre-incubated at 37°C for 5 min, and then 10 μL NADPH was added to start the reaction. After incubation for 30 min, the samples were immediately freezed to −80°C to terminate the reaction. About 20 min later, 300 μL acetonitrile and 10 μL regorafenib (200 ng/mL) as IS were added to precipitate the protein. When the samples were fully vortexed for 2 min and completely mixed, the mixture was centrifuged for 10 min at 13,000 rpm. In the end, each supernatant was detected and analyzed by UPLC-MS/MS.
(§5) The experimental data were expressed as mean ± standard deviation (mean ± S.D.). Through GraphPad Prism 9.5 software, the Michaelis-Menten curves of lenvatinb in RLM and HLM were drawn based on the Michaelis-Menten analysis curve fitting program in nonlinear regression analysis, and the log(inhibitor) vs normalized response mode was applied to acquire the corresponding IC50 curve diagram. […]

[10] = system: HLM; assay: Michaelis-Menten kinetics of lenvatinib in HLM; type: in vitro ADME, human; conditions: HLM vs RLM
Procedure: as §4, §5

[11] = Pharmacokinetics of lenvatinib in SD rats with or without luteolin or myricetin; conditions: Sprague-Dawley, rat, in vivo, po, 1.2 mg/kg
Procedure: Fifteen SD rats were randomly divided into three groups (n = 5): Group A, lenvatinib (1.2 mg/kg, p. o.) ([Cui et al., 2021]); Group B, lenvatinib (1.2 mg/kg, p. o.) + luteolin (30 mg/kg, p. o.) ([Chen et al., 2010]); Group C, lenvatinib (1.2 mg/kg, p. o.) + myricetin (50 mg/kg, p. o.) ([Lan et al., 2017]). Three drugs were suspended in 0.5% carboxymethylcellulose sodium salt (CMC-Na) solution, respectively, prepared when used. Before the formal experiment, SD rats fasted for 12 h to avoid the effect of food intake on drug absorption, but were free to drink water. At the beginning of the experiment, group A was given equal volumes of 0.5% CMC-Na solution, while group B and C were received luteolin and myricetin, respectively. After 30 min, all three groups were gavaged with a single dose of 1.2 mg/kg lenvatinib. At 1, 1.5, 2, 3, 4, 6, 8, 12, and 24 h after lenvatinib administration, blood samples were collected from the tail vein into a 1.5 mL EP tube treated with heparin, respectively. The 50 μL plasma supernatant was precisely extracted and put into a new 1.5 mL EP tube after centrifugation at 8,000 rpm for 10 min. […] Finally, the liquid supernatant was taken to UPLC-MS/MS to detect the concentration of the analytes.

[12] = system: lenvatinib metabolism in rat liver microsomes (RLM); assay: Inhibition of lenvatinib metabolism (M1 formation) by flavonoids in rat liver microsomes; conditions: Lineweaver-Burk plot
Description: (§1) The experimental data were expressed as mean ± standard deviation (mean ± S.D.). Through GraphPad Prism 9.5 software, the Michaelis-Menten curves of lenvatinb in RLM and HLM were drawn based on the Michaelis-Menten analysis curve fitting program in nonlinear regression analysis, and the log(inhibitor) vs normalized response mode was applied to acquire the corresponding IC50 curve diagram. The Lineweaver-Burk plot was got by the Lineweaver-Burk double reciprocal mode, and its subsidiary plot was drawn on the slope (Km/Vmax vs. inhibitor concentration) and y-intercept (1/Vmax vs. inhibitor concentration) of the drawn line. Besides, the mean plasma concentration-time curve of lenvatinib was plotted based on the pharmacokinetic data. Drug and Statistics (DAS) software (version 3.0 software, Mathematical Pharmacology Professional Committee of China, Shanghai, China) with non-compartment model analyzes was used to obtain the corresponding pharmacokinetic parameters. SPSS (version 24.0; SPSS Inc., Chicago, IL, United States of America) with one-way ANOVA was used to compare the difference between the combination and the single group, respectively. p < 0.05, it was considered statistically significant.

[13] = system: lenvatinib metabolism in human liver microsomes (HLM); assay: Inhibition of lenvatinib metabolism (M1 formation) by flavonoids in human liver microsomes; type: in vitro ADME; conditions: for Inhibitory type on lenvatinib metabolism in HLM: Lineweaver-Burk plot
[14] = system: CYP1A2; parameters: method as in Cao et al., 2017; Shi et al., 2024; conditions: ref Cao et al., 2017; Shi et al., 2024; read-out: IC50 on CYP1A2 in vitro; cited from earlier work
[15] = system: lenvatinib metabolism (M1 formation) in RLM; assay: Inhibition of lenvatinib metabolism (M1 formation) by flavonoids in rat liver microsomes; conditions: rat
Description: as §1

[16] = system: tofacitinib metabolism in HLM; parameters: method as in Ye et al., 2024; conditions: ref Ye et al., 2024, cited from earlier work
[17] = system: tofacitinib metabolism in RLM; parameters: method as in Ye et al., 2024; conditions: ref Ye et al., 2024, cited from earlier work
[18] = parameters: method as in Hong et al., 2014; conditions: rats; ref Hong et al., 2014; cited from earlier work
[19] = substrate: COc1ccc2[nH]cc(CCNC(C)=O)c2c1; assay: not read; conditions: other: melatonin, mixed method, RLM; 37.0 °C
Procedure: as §2, §3

[20] = rat liver microsomes, probe bupropion (8.0 μM)
[21] = human liver microsomes, probe lenvatinib 16.9 μM

Molecule: Cc1nc2c([nH]1)c(=O)n(C)c(=O)n2Cc1ccco1 [Furafylline]
- Inhibitory effect on the formation of O-desmethyl lenvatinib [1]: 37%

Molecule: O=c1c(O)c(-c2ccc(O)c(O)c2)oc2cc(O)ccc12 [fisetin]
- IC50 at 30 min [2, 20]: 29.4 ± 1.36 µM
- IC50 at 30 min [3]: 74.2 ± 2.16 µM
- IC50 at 30 min [4, 21]: 21.2 ± 0.93 µM
- IC50 [5]: 5.89 ± 0.13 µM
- inhibition at 30 min, 100 µM ([5]; microsomes): 93.6%
- Degree of inhibition on CYP3A4 ([6]; RLM): weak inhibition

Molecule: C[C@@H](c1nc(-c2ccc(C#N)cc2)cs1)[C@](O)(Cn1cncn1)c1cc(F)ccc1F [isavuconazole]
- Improvement of plasma exposure to lenvatinib [7]: 50.20%

Molecule: CC(=O)N1CCN(c2ccc(OCC3COC(Cn4ccnc4)(c4ccc(Cl)cc4Cl)O3)cc2)CC1 (stereo not drawn) [ketoconazole]
- Improvement of plasma exposure to lenvatinib [7]: 3.01 times

Molecule: COc1cc2nccc(Oc3ccc(NC(=O)NC4CC4)c(Cl)c3)c2cc1C(N)=O [lenvatinib, Lenvatinib]
- microsomal CLint at 1 μM [8]: 2.3 ± 0.2 µL/min/mg
- half-life at 1 μM ([8]; read-out: in vitro t1/2 of lenvatinib): 17 ± 1.55 h
- Km at 30 min [9]: 16.9 ± 2.42 µM
- Km in HLM lower than in RLM [10]: 28.1%
- AUC(0-inf) [11]: 1.41 µg·h/mL
- AUC(0-t) [11]: 1.26 µg·h/mL
- CL/F [11]: 0.86 L/h/kg
- Cmax [11]: 0.147 ± 0.0204 µg/mL
- Tmax [11]: 5.6 ± 0.89 h
- t1/2z of lenvatinib [11]: 4.14 ± 1.57 h

Molecule: O=c1cc(-c2ccc(O)c(O)c2)oc2cc(O)cc(O)c12 [luteolin]
- Degree of inhibition on CYP2B6 ([2]; RLM): moderate inhibition
- IC50 at 30 min [2, 20]: 18.9 ± 1.33 µM
- Inhibitory type on lenvatinib metabolism in RLM [12]: un-competitive
- Inhibitory type on lenvatinib metabolism in RLM ([12]; listed as Luteolin): un-competitive inhibition
- IC50 at 30 min [3]: 49.4 ± 2.45 µM
- IC50 at 30 min [4, 21]: 6.89 ± 0.43 µM
- Ki at 30 min ([4]; human liver microsomes, probe lenvatinib 4.23, 8.45, 16.90, 33.80 μM, Lineweaver-Burk secondary plot, n = 3): 14.3 ± 4.85 µM
- Inhibitory type on lenvatinib metabolism in HLM [13]: mixed
- Inhibitory type on lenvatinib metabolism in HLM ([13]; listed as Luteolin): mixed type of non-competitive and competitive inhibition
- α for inhibition of lenvatinib metabolism in HLM ([13]; αKi/Ki): 1.34
- IC50 [14]: < 10 µM
- IC50 [5]: 0.81 ± 0.07 µM
- Degree of inhibition on CYP1A2 ([5]; RLM, 100 μM): strong inhibition
- inhibition at 30 min, 100 µM ([5]; rat liver microsomes, probe melatonin (30.0 μM)): 96.9%
- Degree of inhibition on CYP3A4 ([6]; microsomes): weak inhibition

Molecule: Cc1ncc2n1-c1ccc(Cl)cc1C(c1ccccc1F)=NC2 [midazolam, reference compound]
- Km at 30 min [3]: 1.9 ± 0.13 µM

Molecule: O=c1c(O)c(-c2cc(O)c(O)c(O)c2)oc2cc(O)cc(O)c12 [myricetin]
- IC50 at 30 min ([2]; microsomes, IC50 for CYP2B6 in RLM, probe 8.0 μM bupropion, mixed probes, 0.3 mg/mL RLM): > 20 µM
- IC50 ([2]; read-out: IC50 for CYP2B6 in RLM, probe 8.0 μM bupropion, mixed probes, 0.3 mg/mL RLM): 25.6 ± 1.73 µM
- IC50 at 30 min [15]: 11.2 ± 0.81 µM
- Inhibition type on tofacitinib in HLM [16]: non-competitively
- IC50 ([16]; read-out: IC50 for inhibition of tofacitinib in HLM): 2.35 µM
- Inhibition type on tofacitinib in RLM [17]: non-competitively
- IC50 ([17]; read-out: IC50 for inhibition of tofacitinib in RLM): 9.27 µM
- IC50 at 30 min [3]: 5.11 ± 0.11 µM
- IC50 at 30 min [4]: 12.3 ± 1.21 µM
- Absolute bioavailability [18]: less than 10%
- IC50 [5]: 5.61 ± 0.25 µM
- inhibition at 30 min, 100 µM ([5]; microsomes): 98.1%

B1: CYP1A2 (Rattus norvegicus) (protein)
chain: MAFSQYISLAPELLLATAIFCLVFWVLRGTRTQVPKGLKSPPGPWGLPFIGHMLTLGKNPHLSLTKLSQQYGDVLQIRIGSTPVVVLSGLNTIKQALVKQGDDFKGRPDLYSFTLITNGKSMTFNPDSGPVWAARRRLAQDALKSFSIASDPTSVSSCYLEEHVSKEANHLISKFQKLMAEVGHFEPVNQVVESVANVIGAMCFGKNFPRKSEEMLNLVKSSKDFVENVTSGNAVDFFPVLRYLPNPALKRFKNFNDNFVLFLQKTVQEHYQDFNKNSIQDITGALFKHSENYKDNGGLIPQEKIVNIVNDIFGAGFETVTTAIFWSILLLVTEPKVQRKIHEELDTVIGRDRQPRLSDRPQLPYLEAFILEIYRYTSFVPFTIPHSTTRDTSLNGFHIPKECCIFINQWQVNHDEKQWKDPFVFRPERFLTNDNTAIDKTLSEKVMLFGLGKRRCIGEIPAKWEVFLFLAILLHQLEFTVPPGVKVDLTPSYGLTMKPRTCEHVQAWPRFSK
- Km [19]: 32.39 ± 0.58 µM
